Test system: TEAD-dependent transcription
Assay: Inhibitor activity against TEAD-dependent transcription in a cell-based reporter assay (MSTO-211H+12XGTIIC luciferase)
Conditions: Homo sapiens; MSTO-211H+12XGTIIC cells, 24 hours incubation, luciferase luminescence normalized to cell viability fluorescence, geometric mean; read-out: MSTO-211H GMean IC50 (uM) Cell Assay Reporter Cell Variant: TEAD
How it was run: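 MSTO-211H mesothelioma cells stably carrying a 12xGTIIC TEAD-response-element luciferase reporter, treated with serial compound dilutions for 24 h at 37 °C. Luminescence normalized to CellTiter-Fluor viability signal; % inhibition versus DMSO and 20 μM K-975 controls, IC50 by nonlinear regression.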

Row | Structure (SMILES) | IC50
1 | O=C(/C=C/CN1CCCC1)N1CCc2ccc(Oc3ccc(C(F)(F)F)cc3)cc2C1 [P-0118, (E)-4-(pyrrolidin-1-yl)-1-(7-(4-(trifluoromethyl)phenoxy)-3,4-dihydroisoquinolin-2(1H)-yl)but-2-en-1-one] | 0.5 to 20 µM
2 | O=C(/C=C/Cn1ccnc1)N1CCc2ccc(Oc3ccc(C(F)(F)F)cc3)cc2C1 [P-0119, (E)-4-(1H-imidazol-1-yl)-1-(7-(4-(trifluoromethyl)phenoxy)-3,4-dihydroisoquinolin-2(1H)-yl)but-2-en-1-one] | 0.001 to 0.5 µM
3 | O=C(/C=C/CN1CCOCC1)N1CCc2ccc(Oc3ccc(C(F)(F)F)cc3)cc2C1 [P-0120, (E)-4-morpholino-1-(7-(4-(trifluoromethyl)phenoxy)-3,4-dihydroisoquinolin-2(1H)-yl)but-2-en-1-one] | 0.5 to 20 µM
4 | CN1CCN(C/C=C/C(=O)N2CCc3ccc(Oc4ccc(C(F)(F)F)cc4)cc3C2)CC1 [P-0121, (E)-4-(4-methylpiperazin-1-yl)-1-(7-(4-(trifluoromethyl)phenoxy)-3,4-dihydroisoquinolin-2(1H)-yl)but-2-en-1-one] | 0.5 to 20 µM
5 | C=C(C)C(=O)N1CCc2ccc(Oc3ccc(C(F)(F)F)cc3)cc2C1 [P-0122, 2-methyl-1-(7-(4-(trifluoromethyl)phenoxy)-3,4-dihydroisoquinolin-2(1H)-yl)prop-2-en-1-one] | 0.5 to 20 µM
6 | C/C=C/C(=O)N1CCc2ccc(Oc3ccc(C(F)(F)F)cc3)cc2C1 [P-0123, (E)-1-(7-(4-(trifluoromethyl)phenoxy)-3,4-dihydroisoquinolin-2(1H)-yl)but-2-en-1-one] | 0.001 to 0.5 µM
7 | C=C(Cl)C(=O)N1CCc2ccc(Oc3ccc(C(F)(F)F)cc3)cc2C1 [P-0124, 2-chloro-1-(7-(4-(trifluoromethyl)phenoxy)-3,4-dihydroisoquinolin-2(1H)-yl)prop-2-en-1-one] | 0.001 to 0.5 µM
8 | O=C(/C=C/Cl)N1CCc2ccc(Oc3ccc(C(F)(F)F)cc3)cc2C1 [P-0125, (E)-3-chloro-1-(7-(4-(trifluoromethyl)phenoxy)-3,4-dihydroisoquinolin-2(1H)-yl)prop-2-en-1-one] | 0.001 to 0.5 µM
9 | C=C(CO)C(=O)N1CCc2ccc(Oc3ccc(C(F)(F)F)cc3)cc2C1 [P-0126, 2-(hydroxymethyl)-1-(7-(4-(trifluoromethyl)phenoxy)-3,4-dihydroisoquinolin-2(1H)-yl)prop-2-en-1-one] | 0.001 to 0.5 µM
10 | C=C(C)S(=O)(=O)N1CCc2ccc(Oc3ccc(C(F)(F)F)cc3)cc2C1 [P-0127, 2-(prop-1-en-2-ylsulfonyl)-7-(4-(trifluoromethyl)phenoxy)-1,2,3,4-tetrahydroisoquinoline] | 0.001 to 0.5 µM
11 | C=CC(=O)N1CCc2ccc(Oc3ccc(C(F)(F)F)cc3)cc2C1=O [P-0128, 2-acryloyl-7-(4-(trifluoromethyl)phenoxy)-3,4-dihydroisoquinolin-1(2H)-one] | 0.001 to 0.5 µM
12 | C=CC(=O)N1CCc2ccc(OCc3ccc(F)c(F)c3)cc2C1 [P-0129, 1-(7-((3,4-difluorobenzyl)oxy)-3,4-dihydroisoquinolin-2(1H)-yl)prop-2-en-1-one] | > 20 µM
13 | C=CC(=O)N1CCc2ccc(OCC3CCC(F)(F)C3)cc2C1 (stereo not shown) [P-0130, 1-(7-((3,3-difluorocyclopentyl)methoxy)-3,4-dihydroisoquinolin-2(1H)-yl)prop-2-en-1-one] | 0.001 to 0.5 µM

Source: patent US20240174659A1, “COMPOUNDS AND METHODS FOR YAP/TEAD MODULATION AND INDICATIONS THEREFOR” (Opna Bio SA, priority 2021, published 2024)
